Data reported in patent publication US9724350B2, “N,6-bis(aryl or heteroaryl)-1,3,5-triazine-2,4-diamine compounds as IDH2 mutants inhibitors for the treatment of cancer” (Agios Pharmaceuticals, Inc., priority 2013, dated 2017).

Assays:
IDH2 R140Q = target: T1, IDH2 R140Q (Homo sapiens, UniProt P48735, R140Q); assay: IDH2 R140Q enzymatic assay (cofactor depletion, diaphorase/resazurin); assay type: biochemical; settings: 16 hours preincubation time
T1 sequence (P48735 40-452 R140Q): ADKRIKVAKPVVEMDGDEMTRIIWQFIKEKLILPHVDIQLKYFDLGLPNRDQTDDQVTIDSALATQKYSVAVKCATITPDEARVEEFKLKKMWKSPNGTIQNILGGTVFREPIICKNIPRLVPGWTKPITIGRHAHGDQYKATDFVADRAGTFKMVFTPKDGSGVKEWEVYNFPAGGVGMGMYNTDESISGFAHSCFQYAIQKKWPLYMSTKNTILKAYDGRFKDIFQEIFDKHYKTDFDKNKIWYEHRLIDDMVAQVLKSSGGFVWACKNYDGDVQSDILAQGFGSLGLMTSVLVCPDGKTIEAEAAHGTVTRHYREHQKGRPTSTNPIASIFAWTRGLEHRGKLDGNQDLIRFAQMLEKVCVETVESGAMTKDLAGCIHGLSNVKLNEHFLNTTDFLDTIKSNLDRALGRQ

[1] = system: U87MG pLVX-IDH2 R140Q-neo cells; assay: U87MG pLVX-IDH2 R140Q-neo cell based assay (2-HG by LC-MS); settings: Homo sapiens, U-87 MG
Protocol: U87MG pLVX-IDH2 R140Q-neo cells are grown in T125 flasks in DMEM containing 10% FBS, 1× penicillin/streptomycin and 500 μg/mL G418. They are harvested by trypsin and seeded into 96 well white bottom plates at a density of 5000 cell/well in 100 μl/well in DMEM with 10% FBS. No cells are plated in columns 1 and 12. Cells are incubated overnight at 37° C. in 5% CO2. The next day compounds are made up at 2× concentration and 100 ul are added to each cell well. The final concentration of DMSO is 0.2% and the DMSO control wells are plated in row G. The plates are then placed in the incubator for 48 hours. At 48 hours, 100 ul of media is removed from each well and analyzed by LC-MS for 2-HG concentrations. The cell plate is placed back in the incubator for another 24 hours. At 72 hours post compound addition, 10 mL/plate of Promega Cell Titer Glo reagent is thawed and mixed. The cell plate is removed from the incubator and allowed to equilibrate to room temperature. Then 100 ul of reagent is added to each well of media. The cell plate is then placed on an orbital shaker for 10 minutes and then allowed to sit at room temperature for 20 minutes. The plate is then read for luminescence with an integration time of 500 ms to determine compound effects on growth inhibition.

- IC50 (IDH2 R140Q): < 50 nM
- IC50 [1]: < 50 nM
SMILES: Nc1nc(Nc2ccnc(C(F)(F)F)c2)nc(-c2cccc(C(F)(F)F)n2)n1 [Compound 378, 6-(6-(trifluoromethyl)pyridin-2-yl)-N2-(2-(trifluoromethyl)pyridin-4-yl)-1,3,5-triazine-2,4-diamine]
